Read-outs that look alike come from different tables or passages of the source.

Consider one molecule from patent US20080188761A1, “ECG-BASED IDENTIFICATION OF IMPAIRED IKR KINETICS” (priority 2006, published 2008).

For this data set, the system named is healthy individuals. Particulars: for RR: healthy subjects, lead II, mean ± SD. As for the experimental part:
Our investigation is based on the analysis of 12-lead digital Holter recordings in: 49 LQT1 carriers, 25 LQT2 carriers, 37 healthy individuals off drugs and on 160 mg of sotalol, and 21 of them also on 320 mg of sotalol. The Holter recordings were used to investigate repolarization parameters and their heart rate dependency.
The study populations consisted of: 49 LQT1 carriers, 25 LQT2 carriers, and 37 healthy individuals who participated in a study focused on effect of sotalol on ECG parameters of repolarization. The group of LQTS patients included individuals with genetically identified KCNH2 (HERG) and KCNQ1 mutations, we investigated these two types of mutations since they are associated with two different ion-kinetics dysfunctions of potassium currents: the KCNH2 have been linked to a reduction of the rapidly activating repolarizing potassium current (IKr) and the KCNQ1 to the slowly activating ion current IKs. We analyzed the patients in whom digital 24-hour Holter recordings were available in order to be able to investigate heart rate dependency of their repolarization morphology. The protocol of this study included 3 days of Holter recordings: at baseline, on single 160 mg dose of sotalol and a 320 mg dose of sotalol.
All the Holter ECGs were recorded using the same type of equipment: 24-hour Holter recorder H12 (H-12 recorder, Mortara Instrument, Milwaukee, Wis.) providing digital ECG signal at a sampling frequency of 180 Hz and with 12 bit amplitude resolution (6.25 pv). In this recording, 8 original leads are recorded and the remaining 4 leads (augmented limb leads aVR, aVL, aVF and lead III) are computed. Beat classification was performed using the HScribe scanning software (HScribe, Mortara Instrument, Milwaukee, Wi.) and manually reviewed and adjusted when necessary. The information about cardiac beat annotation was exported in XML format and integrated into the COMPAS software (COMPhrensive Analysis of the repolarization Segment software, University of Rochester Medical Center Rochester, N.Y.) for the analysis of repolarization morphology.
To ensure stability of repolarization and increase signal-to-noise ratio, we adopted the following strategy: the Holter recordings were divided in sections of 10 continuous sinus beats. Only the sections preceded by stable heart rate within the previous 5 minutes were selected for the analysis. Heart rate stability required having less than 300 ms changes between continuous RR values within the 5 minutes. […] The QT interval and T-amplitude measurements were based on median beats computed from each so-called “stable representative beats”.
Based on a technique ensuring an appropriate stability of the modeling of the relationship between repolarization measurements and the RR intervals disclosed in a publication by Couderc J P, Xiaojuan X, Zerba W, Moss A J, entitled, “Assessment of the Stability of the Individual-Based Correction of QT Interval for Heart Rate”, published in the Ann. Noninvasive. Electrocardiol. 2005 January; 10(1):25-34, and herein officially incorporated by reference, we investigated two electrocardiographic measurements: the QT interval and the amplitude of the T-wave and their relationship with RR intervals.
The QT interval and T amplitude were measured on the stable representative beats from lead II. The end of T-wave was identified based on the tangent method, the crossing point between the tangent and the isoelectric line identifying the end of the T-wave, although other methods of measuring the QT interval could be used in other embodiments. The amplitude of the T-wave was measured at the maximum value of the T-wave signal in absolute value. For negative T-waves, the sign of the amplitude was conserved. For biphasic T-waves, we measured the highest portion of the signal in absolute value. No manual adjustments of measurements were performed.

For the setting “high dose sotalol (320 mg), n = 21, diurnal period”, `CC(C)NCC(O)c1ccc(NS(C)(=O)=O)cc1` (stereo not drawn) [sotalol] came in with an RR of 947 ± 70 ms. The molecule also showed an RR (low dose sotalol (160 mg), n = 37, diurnal period) of 893 ± 63 ms. Further, for the setting “in vivo”, the “Dose dependence of QT/RR slope” value was “not associated with sotalol dose-dependent changes”; the “Dose dependence of T-wave amplitude/RR slope” value is reported as “dose-dependent effect on the slope”; the “Dose-dependent effect on QT interval duration, RR bin analysis” value is “this trend did not reach statistical significance”; the “Mean levels of T wave amplitude off vs on sotalol” value was “not significantly different”. Besides, under “in vivo”, the “QT interval duration, RR bin analysis, vs healthy individuals” value is reported as “significant QT interval prolongation”; the “QTc with increasing dose of sotalol” value is reported as “progressively prolonged”; the “T-wave amplitude across RR bins” value is given as “clear dose-dependent effect of the drug on T-wave amplitude exacerbated at low heart rate”.
